pIC50: −log10 of the molar value. Like-named read-outs stand apart in the source and are kept apart here.

This assay has as its target human NK1R (Homo sapiens, UniProt P25103). Kind of assay: human NK1R assay: displacement of radiolabelled substance P binding. Here is the method: The substance P antagonizing activity of the compounds described herein was evaluated using the human NK1R assay described in published European patent application no. 0 528 495. The method essentially involves determining the concentration of the test compound required to reduce by 50% the amount of radiolabelled substance P binding to human NK1R, thereby affording an IC50 value for the test compound.

Setting [1] is: radiolabelled substance P, assay as in EP 0 528 495, read-out: IC50 (concentration of the test compound required to reduce by 50% the amount of radiolabelled substance P binding to human NK1R).

Chain of human NK1R (P25103 whole entry): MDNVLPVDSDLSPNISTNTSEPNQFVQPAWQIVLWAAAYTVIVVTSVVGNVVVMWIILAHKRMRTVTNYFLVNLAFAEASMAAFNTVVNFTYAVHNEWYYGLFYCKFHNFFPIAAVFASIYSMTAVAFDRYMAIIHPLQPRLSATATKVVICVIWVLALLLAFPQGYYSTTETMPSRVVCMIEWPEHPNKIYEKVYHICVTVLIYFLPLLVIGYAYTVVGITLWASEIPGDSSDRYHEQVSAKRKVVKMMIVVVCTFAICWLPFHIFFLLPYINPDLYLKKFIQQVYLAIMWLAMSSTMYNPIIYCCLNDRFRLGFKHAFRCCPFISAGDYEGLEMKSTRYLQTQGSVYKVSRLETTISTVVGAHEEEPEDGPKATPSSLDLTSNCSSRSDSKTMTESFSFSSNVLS

As to `NC1(c2ccccc2)CCCCC1OCc1cc(C(F)(F)F)cc(C(F)(F)F)c1` (stereo not drawn) [Example 5, 1-(Bis-3,5-trifluoromethylbenzyoxy)-2-amino-2-phenylcyclohexane], the pIC50 under setting [1] was 6.46. Take `NC(=O)CNC1(c2ccccc2)CCCCC1OCc1cc(C(F)(F)F)cc(C(F)(F)F)c1` (stereo not drawn) [Example 6, 1-(Bis-3,5-trifluoromethylbenzyoxy)-2-(carboxamido)methylamino-2-phenylcyclohexane]: the pIC50 under setting [1] is 7.00. For `Cc1cc(C)cc(COC2CCCCC2(N)c2ccccc2)c1` (stereo not drawn) [Example 1, 1-(3,5-Dimethylbenzyloxy)-2-amino-2-phenylcyclohexane], the pIC50 is 7.00.
